# Measured values as given in patent publication US8119661B2, “Piperidine derivatives and their use as muscarinic receptor modulators” (AstraZeneca AB, priority 2007, dated 2012).
# Experiments:
# [1] = target: T1, hM1 (human Muscarinic receptor subtype 1) (Homo sapiens, UniProt P11229); test: Human M1 calcium mobilization FLIPR assay; assay type: cell-based; details: CHO cells expressing hM1, intracellular Ca2+ release
# T1 construct: expressed in transfected cells; host or cells: CHO cells (Chinese hamster ovary cells, ATCC)
# T1 sequence (P11229 1-460): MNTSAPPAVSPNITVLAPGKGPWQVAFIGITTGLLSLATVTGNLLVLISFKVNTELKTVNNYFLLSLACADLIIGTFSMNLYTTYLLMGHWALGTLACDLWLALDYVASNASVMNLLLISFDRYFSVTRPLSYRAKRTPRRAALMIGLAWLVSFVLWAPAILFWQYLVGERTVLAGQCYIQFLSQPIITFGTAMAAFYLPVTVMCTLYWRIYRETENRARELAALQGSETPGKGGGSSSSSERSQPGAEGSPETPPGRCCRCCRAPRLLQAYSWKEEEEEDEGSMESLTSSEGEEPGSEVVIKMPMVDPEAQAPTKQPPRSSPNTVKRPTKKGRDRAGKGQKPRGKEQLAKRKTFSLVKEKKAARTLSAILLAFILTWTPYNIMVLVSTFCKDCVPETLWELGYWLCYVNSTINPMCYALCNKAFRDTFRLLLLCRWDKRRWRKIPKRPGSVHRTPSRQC
# Procedure: (§1) The compound activity in the present invention (EC50 or IC50) is measured using a 384 plate-based imaging assay that monitors drug induced intracellular Ca^2+ release in whole cells. Activation of hM1 (human Muscarinic receptor subtype 1, gene bank access NM_000738), rM1 (rat Muscarinic receptor subtype 1, gene bank access NM_080773), hM3 (human Muscarinic receptor subtype 3, gene bank access NM_000740NM_000740) and hM5 (human Muscarinic receptor subtype 5, gene bank access NM_0121258), receptors expressed in CHO cells (Chinese hamster ovary cells, ATCC) is quantified in a Molecular Devices FLIPR II™ instrument as an increase in fluorescent signal. Inhibition of hM3 and hM5 by compounds is determined by the decrease in fluorescent signal in response to 2 nM acetylcholine activation.
# (§2) Prior to experiment, the cell culture medium is removed from the plates by inversion. […] Plates are incubated at 37° C. for 60 minutes prior to start the experiment. The incubation is terminated by washing the cells four times in assay buffer, leaving a residual 25 μl buffer per well. Cell plates are then transferred to the FLIPR, ready for compound additions.
# (§3) The day of experiment, acetylcholine and compounds are diluted in assay buffer in three-fold concentration range (10 points serial dilution) for addition by FLIPR instrument. For all calcium assays, a baseline reading is taken for 10 seconds followed by the addition of 12.5 μl of compounds, resulting in a total well volume of 37.5 μl. Data is collected every second for 60 pictures and then every 6 seconds for 20 pictures prior to the addition of agonist. For hM3 and hM5, before agonist addition, a second baseline reading is taken for 10 seconds followed by the addition of 12.5 μl of agonist or buffer, producing a final volume of 50 μl. After agonist stimulation, the FLIPR continues to collect data every second for 60 pictures and then every 6 seconds for 20 pictures. The fluorescence emission is read using filter 1 (emission 510-570 nm) by the FLIPR on board CCD camera.
# (§4) Calcium mobilization output data are calculated as the maximal relative fluorescence unit (RFU) minus the minimal value for both compound and agonist reading frame (except for hM1 and rM1 using only the maximal RFU). Data are analyzed using sigmoidal fits of a non-linear curve-fitting program (XLfit version 4.2.2 Excel add-in version 4.2.2 build 18 math 1Q version 2.1.2 build 18). All pEC50 and pIC50 values are reported as arithmetic means±standard error of mean of ‘n’ independent experiments.
# [2] = target: T2, hM3 (human Muscarinic receptor subtype 3) (Homo sapiens, UniProt P20309); test: Human M3 calcium mobilization FLIPR assay; assay type: cell-based; details: CHO cells expressing hM3, intracellular Ca2+ release
# T2 construct: expressed in transfected cells; host or cells: CHO cells (Chinese hamster ovary cells, ATCC)
# Procedure: as §1, §2, §3, §4
# cloned human M4 receptor = target: T3, cloned human M4 receptor (Homo sapiens, UniProt P08173); test: hM4 receptor GTPγS binding; assay type: biochemical; details: CHO membranes expressing hM4, [35S]GTPγS binding
# T3 construct: purchased Perkin-Elmer RBHM4M; host or cells: CHO cell membranes
# T3 sequence (P08173 1-479): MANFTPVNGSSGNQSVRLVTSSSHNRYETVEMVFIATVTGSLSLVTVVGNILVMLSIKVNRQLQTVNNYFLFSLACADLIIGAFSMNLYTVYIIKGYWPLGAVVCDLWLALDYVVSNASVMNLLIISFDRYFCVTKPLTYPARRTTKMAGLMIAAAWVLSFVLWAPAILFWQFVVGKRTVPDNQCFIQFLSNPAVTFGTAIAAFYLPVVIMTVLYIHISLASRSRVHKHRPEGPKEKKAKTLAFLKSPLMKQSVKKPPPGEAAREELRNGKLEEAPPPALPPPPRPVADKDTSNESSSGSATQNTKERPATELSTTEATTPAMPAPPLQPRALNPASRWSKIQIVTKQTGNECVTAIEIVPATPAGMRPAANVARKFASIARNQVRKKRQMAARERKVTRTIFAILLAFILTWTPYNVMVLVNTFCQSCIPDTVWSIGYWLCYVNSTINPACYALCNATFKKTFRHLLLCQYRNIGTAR
# Procedure: Membranes produced from Chinese hamster ovary cells (CHO) expressing the cloned human M4 receptor (human Muscarinic receptor subtype 4, gene bank access NM_000741), are obtained from Perkin-Elmer (RBHM4M). The membranes are thawed at 37° C., passed 3 times through a 23-gauge blunt-end needle, diluted in the GTPγS binding buffer (50 mM Hepes, 20 mM NaOH, 100 mM NaCl, 1 mM EDTA, 5 mM MgCl2, pH 7.4, 100 μM DTT). The EC50, IC50 and Emax of the compounds of the invention are evaluated from 10-point dose-response curves (three fold concentration range) done in 60 μl in 384-well non-specific binding surface plate (Corning). Ten microliters from the dose-response curves plate (5× concentration) are transferred to another 384 well plate containing 25 μl of the following: 10 μg of hM4 membranes, 500 μg of Flashblue beads (Perkin-Elmer) and GDP 40 μM. An additional 15 μl containing 3.3× (60,000 dpm) of GTPγ^35S (0.4 nM final) are added to the wells resulting in a total well volume of 50 μl. Basal and maximal stimulated [^35S]GTPγS binding are determined in absence and presence of 30 μM final of acetylcholine agonist. The membranes/beads mix are pre-incubated for 15 minutes at room temperature with 40 μM GDP prior to distribution in plates (20 μM final). The reversal of acetylcholine-induced stimulation (10 μM final) of [^35S]GTPγS binding is used to assay the antagonist properties (IC50) of the compounds. The plates are incubated for 60 minutes at room temperature then centrifuged at 400 rpm for 5 minutes. The radioactivity (cpm) is counted in a Trilux (Perkin-Elmer).
# Values of EC50, IC50 and Emax are obtained using sigmoidal fits of a non-linear curve-fitting program (XLfit version 4.2.2 Excel add-in version 4.2.2 build 18 math 1Q version 2.1.2 build 18) of percent stimulated [^35S]GTPγS binding vs. log(molar ligand). All pEC50 and pIC50 values are reported as arithmetic means±standard error of mean of ‘n’ independent experiments.
# T2 sequence (P20309 whole entry): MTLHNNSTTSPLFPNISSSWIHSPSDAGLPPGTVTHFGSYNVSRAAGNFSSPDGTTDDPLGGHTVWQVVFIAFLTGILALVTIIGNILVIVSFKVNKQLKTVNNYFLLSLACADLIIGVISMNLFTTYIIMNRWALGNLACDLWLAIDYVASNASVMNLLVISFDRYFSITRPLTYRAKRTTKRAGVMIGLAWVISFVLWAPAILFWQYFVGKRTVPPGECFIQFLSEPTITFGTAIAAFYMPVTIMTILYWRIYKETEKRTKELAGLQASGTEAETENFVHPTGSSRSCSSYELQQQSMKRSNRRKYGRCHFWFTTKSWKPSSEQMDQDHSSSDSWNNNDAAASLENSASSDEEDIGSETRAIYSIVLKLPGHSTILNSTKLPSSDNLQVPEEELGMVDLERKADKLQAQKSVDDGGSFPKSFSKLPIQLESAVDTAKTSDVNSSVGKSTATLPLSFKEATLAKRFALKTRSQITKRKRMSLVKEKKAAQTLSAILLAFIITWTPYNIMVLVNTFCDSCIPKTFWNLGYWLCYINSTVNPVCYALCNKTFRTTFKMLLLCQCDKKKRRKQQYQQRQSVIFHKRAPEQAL
EC50 [1] [nM],EC50 [2] [µM],EC50 (cloned human M4 receptor) [µM],SMILES
54,> 40,> 30,"CC(C)OC(=O)N1CCC(C)(N2CCC(N3C(=O)N[C@@H]4CCCC[C@@H]43)CC2)CC1 (relative stereo) [Example 13, Propan-2-yl 4-[4-[(cis)-2-oxo-3a,4,5,6,7,7a-hexahydro-3H-benzoimidazol-1-yl]-1-piperidyl]-4-methyl-piperidine-1-carboxylate]"
69,,> 30,"COC(=O)N1CCC(C)(N2CCC(N3C(=O)N[C@H]4CCCC[C@@H]43)CC2)C1 (mixture of isomers) [Example 10, Methyl 3-[4-[(3aS,7aS)-2-oxo-3a,4,5,6,7,7a-hexahydro-3H-benzoimidazol-1-yl]-1-piperidyl]-3-methyl-pyrrolidine-1-carboxylate]"
11,> 40,> 4,"CCOC(=O)N1CCC(C)(N2CCC(N3C(=O)N[C@@H]4CCCC[C@@H]43)CC2)CC1 (relative stereo) [Example 12, Ethyl 4-[4-[(cis)-2-oxo-3a,4,5,6,7,7a-hexahydro-3H-benzoimidazol-1-yl]-1-piperidyl]-4-methyl-piperidine-1-carboxylate]"
55,,> 30,"CCOC(=O)N1CCC(C)(N2CCC(N3C(=O)N[C@@H]4CCCC[C@H]43)CC2)C1 (mixture of isomers) [Example 11, Ethyl 3-[4-[(3aR,7aR)-2-oxo-3a,4,5,6,7,7a-hexahydro-3H-benzoimidazol-1-yl]-1-piperidyl]-3-methyl-pyrrolidine-1-carboxylate]"
3,> 25.6,3.47,"CCOC(=O)N1CCC(C)(N2CCC(N3C(=O)N[C@H]4CCCC[C@@H]43)CC2)C1 (single isomer, unassigned) [Example 22]"
1.5,,> 30,"C#CCOC(=O)N1CCC(C)(N2CCC(N3C(=O)N[C@H]4CCCC[C@@H]43)CC2)CC1 [Example 17, prop-2-ynyl 4-[4-[(3aS,7aS)-2-oxo-3a,4,5,6,7,7a-hexahydro-3H-benzimidazol-1-yl]-1-piperidyl]-4-methyl-piperidine-1-carboxylate]"
3.3,> 4.2,> 6.1,"CCOC(=O)N1CCC(C)(N2CCC(N3C(=O)N[C@@H]4CCCC[C@H]43)CC2)CC1 [Example 04, Ethyl 4-[4-[(3aR,7aR)-2-oxo-3a,4,5,6,7,7a-hexahydro-3H-benzoimidazol-1-yl]-1-piperidyl]-4-methyl-piperidine-1-carboxylate]"
4.9,,0.919,"CC#CCOC(=O)N1CCC(C)(N2CCC(N3C(=O)N[C@H]4CCCC[C@@H]43)CC2)C1 (single isomer, unassigned) [Example 19]"
19,> 40,> 30,"CC(C)OC(=O)N1CCC(C)(N2CCC(N3C(=O)C[C@H]4CCCC[C@@H]43)CC2)CC1 [Example 14, Propan-2-yl 4-[4-[(3aR,7aS)-2-oxo-3a,4,5,6,7,7a-hexahydro-3H-indol-1-yl]-1-piperidyl]-4-methyl-piperidine-1-carboxylate]"
51,> 49,> 30,"CC1(N2CCC(N3C(=O)N[C@@H]4CCCC[C@H]43)CC2)CCN(C(=O)C2CC2)CC1 [Example 06, (3aR,7aR)-1-[1-[1-(cyclopropanecarbonyl)-4-methyl-4-piperidyl]-4-piperidyl]-3a,4,5,6,7,7a-hexahydro-3H-benzoimidazol-2-one]"
69,,> 30,"CC1(N2CCC(N3C(=O)N[C@H]4CCCC[C@@H]43)CC2)CCN(C(=O)OCCF)C1 (mixture of isomers) [Example 08, 2-fluoroethyl 3-[4-[(3aS,7aS)-2-oxo-3a,4,5,6,7,7a-hexahydro-3H-benzoimidazol-1-yl]-1-piperidyl]-3-methyl-pyrrolidine-1-carboxylate]"
3.6,> 40,> 90,"CC#CCOC(=O)N1CCC(C)(N2CCC(N3C(=O)N[C@H]4CCCC[C@@H]43)CC2)CC1 [Example 16, But-2-ynyl 4-[4-[(3aS,7aS)-2-oxo-3a,4,5,6,7,7a-hexahydro-3H-benzimidazol-1-yl]-1-piperidyl]-4-methyl-piperidine-1-carboxylate]"
< 7.1,> 40,> 6.5,"CC1(N2CCC(N3C(=O)N[C@H]4CCCC[C@@H]43)CC2)CCN(C(=O)C2CC2)CC1 [Example 03, (3aS,7aS)-1-[1-[1-(cyclopropanecarbonyl)-4-methyl-4-piperidyl]-4-piperidyl]-3a,4,5,6,7,7a-hexahydro-3H-benzoimidazol-2-one]"

SMILES,EC50 [1] [nM],EC50 [2] [µM],EC50 (cloned human M4 receptor) [µM]
"CCOC(=O)N1CCC(C)(N2CCC(N3C(=O)C[C@@H]4CCCC[C@H]43)CC2)C1 (stereo in doubt) [Example 23, Ethyl 3-[4-[(3aS,7aR)-2-oxo-3a,4,5,6,7,7a-hexahydro-3H-indol-1-yl]-1-piperidyl]-3-methyl-pyrrolidine-1-carboxylate]",22,> 120,17
"CC(C)OC(=O)N1CCC(C)(N2CCC(N3C(=O)N[C@H]4CCCC[C@@H]43)CC2)CC1 [Example 02, Propan-2-yl 4-[4-[(3aS,7aS)-2-oxo-3a,4,5,6,7,7a-hexahydro-3H-benzoimidazol-1-yl]-1-piperidyl]-4-methyl-piperidine-1-carboxylate]",4.4,> 40,> 30
